Measurements published in patent US20170057954A1, “SUBSTITUTED IMIDAZO[1,2-A]PYRIDINECARBOXAMIDES AND THEIR USE” (Bayer Pharma Aktiengesellschaft, priority 2014, published 2017).

Test system: recombinant guanylate cyclase reporter cell line
Assay: Effect on a recombinant guanylate cyclase reporter cell line
Type: cell-based
Conditions: in some cases mean values for individual determinations, read-out: MEC (minimum effective concentration)
Experimental: B-2. Effect on a Recombinant Guanylate Cyclase Reporter Cell Line
The cellular activity of the compounds according to the invention is determined using a recombinant guanylate cyclase reporter cell line, as described in F. Wunder et al., Anal. Biochem. 339, 104-112 (2005).
Representative MEC values (MEC=minimum effective concentration) for the compounds of the invention are shown in the table below (in some cases as mean values for individual determinations): […]

SMILES: Cc1cc(OCc2c(F)cccc2F)c2nc(C)c(C(=O)NOC(C)c3ccccc3)n2c1 (racemic) [Example 78, rac-8-[(2,6-Difluorobenzyl)oxy]-2,6-dimethyl-N-(1-phenylethoxy)imidazo[1,2-a]pyridine-3-carboxamide]
- minimal effective concentration: 1 µM

SMILES: Cc1cc(OCc2c(F)cccc2F)c2nc(C)c(C(=O)NOCCO)n2c1 [Example 1, 8-[(2,6-Difluorobenzyl)oxy]-N-(2-hydroxyethoxy)-2,6-dimethylimidazo[1,2-a]pyridine-3-carboxamide]
- minimal effective concentration: 0.3 µM

SMILES: Cc1cc(OCc2c(F)cccc2F)c2nc(C)c(C(=O)NOCCN(C)C)n2c1 [Example 2]
- minimal effective concentration: 1 µM

SMILES: Cc1cc(OCc2c(F)cccc2F)c2nc(C)c(C(=O)NOCC(=O)NCc3ccc(Cl)cc3)n2c1 [Example 4]
- minimal effective concentration: 3 µM

SMILES: Cc1cc(OCc2c(F)cccc2F)c2nc(C)c(C(=O)NOCC(=O)N3CCN(c4ccccc4)CC3)n2c1 [Example 5]
- minimal effective concentration: 10 µM

SMILES: Cc1cc(OCc2c(F)cccc2F)c2nc(C)c(C(=O)NOC3COC3)n2c1 [Example 6]
- minimal effective concentration: 1 µM

SMILES: Cc1cc(OCc2c(F)cccc2F)c2nc(C)c(C(=O)NOCCN)n2c1 [Example 7, N-(2-Aminoethoxy)-8-[(2,6-difluorobenzyl)oxy]-2,6-dimethylimidazo[1,2-a]pyridine-3-carboxamide hydrate]
- minimal effective concentration: 1 µM

SMILES: Cc1cc(OCc2c(F)cccc2F)c2nc(C)c(C(=O)NOCC3CCCN3)n2c1 (stereo not shown) [Example 8]
- minimal effective concentration: 3 µM

SMILES: Cc1cc(OCc2c(F)cccc2F)c2nc(C)c(C(=O)NOCC(N)C(C)C)n2c1 (stereo not shown) [Example 9]
- minimal effective concentration: 1 µM

SMILES: Cc1cc(OCc2c(F)cccc2F)c2nc(C)c(C(=O)NOC[C@H](O)CO)n2c1 [Example 11, 8-[(2,6-Difluorobenzyl)oxy]-N-{[(2R)-2,3-dihydroxypropyl]oxy}-2,6-dimethylimidazo[1,2-a]pyridine-3-carboxamide]
- minimal effective concentration: 1 µM

SMILES: Cc1cc(OCc2c(F)ccc(F)c2F)c2nc(C)c(C(=O)NN3CCOCC3)n2c1 [Example 12, 2,6-Dimethyl-N-(morpholin-4-yl)-8-[(2,3,6-trifluorobenzyl)oxy]imidazo[1,2-a]pyridine-3-carboxamide]
- minimal effective concentration: 1 µM

SMILES: Cc1cc(OC(C)c2c(F)cccc2F)c2nc(C)c(C(=O)NOCCO)n2c1 (stereo not shown) [Example 13]
- minimal effective concentration: 10 µM

SMILES: O=C(NOCCO)c1cnc2c(OCc3c(F)cccc3F)cccn12 [Example 14]
- minimal effective concentration: 10 µM

SMILES: Cc1nc2c(OCC3CCCCC3)cccn2c1C(=O)NN1CCOCC1 [Example 15]
- minimal effective concentration: 1 µM

SMILES: CCCc1nc2c(OCc3c(F)cccc3F)cc(C)cn2c1C(=O)NN1CCOCC1 [Example 17]
- minimal effective concentration: 10 µM

SMILES: CCc1nc2c(OCc3c(F)cccc3F)cc(C)cn2c1C(=O)NN1CCOCC1 [Example 20]
- minimal effective concentration: 1 µM

SMILES: COc1cc(OCc2c(F)cccc2F)c2nc(C)c(C(=O)NN3CCOCC3)n2c1 [Example 21]
- minimal effective concentration: 3 µM

SMILES: O=C(NN1CCOCC1)c1cnc2c(OCc3c(F)cccc3F)cccn12 [Example 23]
- minimal effective concentration: 10 µM

SMILES: COc1ccc(F)c(COc2cc(C)cn3c(C(=O)NN4CCOCC4)c(C)nc23)c1F [Example 25]
- minimal effective concentration: 10 µM

SMILES: Cc1cc(OCc2c(F)ccc(C3CC3)c2F)c2nc(C)c(C(=O)NN3CCOCC3)n2c1 [Example 26]
- minimal effective concentration: 10 µM

SMILES: Cc1cc(OCc2c(F)cccc2F)c2nc(C)c(C(=O)NNCC(C)C)n2c1 [Example 27, 8-[(2,6-Difluorobenzyl)oxy]-N′-isobutyl-2,6-dimethylimidazo[1,2-a]pyridine-3-carbohydrazide]
- minimal effective concentration: 0.3 µM

SMILES: C=CCONC(=O)c1c(C)nc2c(OCc3c(F)cccc3F)cc(C)cn12 [Example 28]
- minimal effective concentration: 0.3 µM

SMILES: CONC(=O)c1c(C)nc2c(OCc3c(F)cccc3F)cc(C)cn12 [Example 29]
- minimal effective concentration: 1 µM

SMILES: Cc1cc(OCc2c(F)cccc2F)c2nc(C)c(C(=O)NN3CCN(CCO)CC3)n2c1 [Example 30]
- minimal effective concentration: 1 µM

SMILES: Cc1cc(OCc2c(F)cccc2F)c2nc(C)c(C(=O)NNC(=O)C3CCCC3)n2c1 [Example 31]
- minimal effective concentration: 0.3 µM

SMILES: COCC(=O)NNC(=O)c1c(C)nc2c(OCc3c(F)cccc3F)cc(C)cn12 [Example 32]
- minimal effective concentration: 1 µM

SMILES: COCCC(=O)NNC(=O)c1c(C)nc2c(OCc3c(F)cccc3F)cc(C)cn12 [Example 33]
- minimal effective concentration: 0.3 µM

SMILES: Cc1cc(OCc2c(F)cccc2F)c2nc(C)c(C(=O)NNc3ccc4ccccc4c3)n2c1 [Example 34]
- minimal effective concentration: 1 µM

SMILES: Cc1cc(OCc2c(F)cccc2F)c2nc(C)c(C(=O)NNc3nnc(C(C)(C)C)s3)n2c1 [Example 35]
- minimal effective concentration: 3 µM

SMILES: Cc1cc(OCc2c(F)cccc2F)c2nc(C)c(C(=O)NNc3cccc(Oc4ccccc4)c3)n2c1 [Example 36]
- minimal effective concentration: 10 µM

SMILES: Cc1cc(OCc2c(F)cccc2F)c2nc(C)c(C(=O)NNC(=O)CN(C)C)n2c1 [Example 37]
- minimal effective concentration: 0.1 µM

SMILES: Cc1cc(OCc2c(F)cccc2F)c2nc(C)c(C(=O)NNC(C)(C)C)n2c1 [Example 38]
- minimal effective concentration: 0.3 µM

SMILES: Cc1cccc(NNC(=O)c2c(C)nc3c(OCc4c(F)cccc4F)cc(C)cn23)c1 [Example 39]
- minimal effective concentration: 0.3 µM

SMILES: Cc1cc(OCc2c(F)cccc2F)c2nc(C)c(C(=O)NNc3ccccn3)n2c1 [Example 40]
- minimal effective concentration: 0.3 µM

SMILES: Cc1cc(OCc2c(F)cccc2F)c2nc(C)c(C(=O)NNCC(F)(F)F)n2c1 [Example 41]
- minimal effective concentration: 0.3 µM

SMILES: CCCCCCC(C)NNC(=O)c1c(C)nc2c(OCc3c(F)cccc3F)cc(C)cn12 (stereo not shown) [Example 42]
- minimal effective concentration: 3 µM

SMILES: COc1cc(OC)nc(NNC(=O)c2c(C)nc3c(OCc4c(F)cccc4F)cc(C)cn23)n1 [Example 43]
- minimal effective concentration: 0.3 µM

SMILES: CCCCCCC(CCC)NNC(=O)c1c(C)nc2c(OCc3c(F)cccc3F)cc(C)cn12 (stereo not shown) [Example 44]
- minimal effective concentration: 3 µM

SMILES: Cc1cc(OCc2c(F)cccc2F)c2nc(C)c(C(=O)NNc3cccc(C(F)(F)F)c3)n2c1 [Example 45]
- minimal effective concentration: 0.3 µM

SMILES: Cc1cc(OCc2c(F)cccc2F)c2nc(C)c(C(=O)NNc3ccc(Cl)cc3)n2c1 [Example 46]
- minimal effective concentration: 0.1 µM

SMILES: Cc1cc(OCc2c(F)cccc2F)c2nc(C)c(C(=O)NNc3ccc(C(C)(C)C)cc3)n2c1 [Example 47]
- minimal effective concentration: 3 µM

SMILES: Cc1cc(OCc2c(F)cccc2F)c2nc(C)c(C(=O)NNc3ccc(OC(F)(F)F)cc3)n2c1 [Example 48]
- minimal effective concentration: 1 µM

SMILES: Cc1cc(OCc2c(F)cccc2F)c2nc(C)c(C(=O)NNCCc3ccccc3)n2c1 [Example 49]
- minimal effective concentration: 1 µM

SMILES: Cc1cc(OCc2c(F)cccc2F)c2nc(C)c(C(=O)NNC(=O)c3nccs3)n2c1 [Example 50]
- minimal effective concentration: 1 µM

SMILES: Cc1cc(OCc2c(F)cccc2F)c2nc(C)c(C(=O)NN(C)c3ccccc3)n2c1 [Example 51]
- minimal effective concentration: 0.1 µM

SMILES: Cc1cc(OCc2c(F)cccc2F)c2nc(C)c(C(=O)NNc3ccc(Cl)c(Cl)c3)n2c1 [Example 52]
- minimal effective concentration: 0.3 µM

SMILES: Cc1cc(C)cc(NNC(=O)c2c(C)nc3c(OCc4c(F)cccc4F)cc(C)cn23)c1 [Example 53]
- minimal effective concentration: 1 µM

SMILES: Cc1cc(OCc2c(F)cccc2F)c2nc(C)c(C(=O)NNc3cccc(Br)c3)n2c1 [Example 54]
- minimal effective concentration: 0.3 µM

SMILES: Cc1cc(OCc2c(F)cccc2F)c2nc(C)c(C(=O)NNc3ccc(F)cc3)n2c1 [Example 55]
- minimal effective concentration: 0.1 µM

SMILES: Cc1cc(OCc2c(F)cccc2F)c2nc(C)c(C(=O)NNc3cnc4ccccc4n3)n2c1 [Example 56]
- minimal effective concentration: 1 µM

SMILES: Cc1cc(OCc2c(F)cccc2F)c2nc(C)c(C(=O)NNc3ccnc4c(F)cccc34)n2c1 [Example 57]
- minimal effective concentration: 1 µM

SMILES: Cc1cc(OCc2c(F)cccc2F)c2nc(C)c(C(=O)NNc3cc(Cl)c(C)cc3C)n2c1 [Example 58]
- minimal effective concentration: 0.3 µM

SMILES: Cc1cc(OCc2c(F)cccc2F)c2nc(C)c(C(=O)NOCc3ccccc3C#N)n2c1 [Example 59]
- minimal effective concentration: 1 µM

SMILES: Cc1cc(OCc2c(F)cccc2F)c2nc(C)c(C(=O)NNC(=O)C3CC3)n2c1 [Example 60]
- minimal effective concentration: 1 µM

SMILES: CCNNC(=O)c1c(C)nc2c(OCc3c(F)cccc3F)cc(C)cn12 [Example 61]
- minimal effective concentration: 10 µM

SMILES: Cc1cc(OCc2c(F)cccc2F)c2nc(C)c(C(=O)NN3CCCCCC3)n2c1 [Example 62]
- minimal effective concentration: 0.1 µM

SMILES: CCCCNNC(=O)c1c(C)nc2c(OCc3c(F)cccc3F)cc(C)cn12 [Example 63]
- minimal effective concentration: 3 µM

SMILES: Cc1cc(OCc2c(F)cccc2F)c2nc(C)c(C(=O)NNC3CCCC3)n2c1 [Example 64]
- minimal effective concentration: 3 µM

SMILES: Cc1cc(OCc2c(F)cccc2F)c2nc(C)c(C(=O)NNCc3csc(C)n3)n2c1 [Example 65]
- minimal effective concentration: 1 µM

SMILES: CSCCNNC(=O)c1c(C)nc2c(OCc3c(F)cccc3F)cc(C)cn12 [Example 66]
- minimal effective concentration: 3 µM

SMILES: Cc1cc(OCc2c(F)cccc2F)c2nc(C)c(C(=O)NNCc3ccccc3)n2c1 [Example 67]
- minimal effective concentration: 1 µM

SMILES: CCOC(=O)CNNC(=O)c1c(C)nc2c(OCc3c(F)cccc3F)cc(C)cn12 [Example 68]
- minimal effective concentration: 1 µM

SMILES: Cc1cc(OCc2c(F)cccc2F)c2nc(C)c(C(=O)NNC(C)C)n2c1 [Example 69]
- minimal effective concentration: 10 µM

SMILES: Cc1cc(OCc2c(F)cccc2F)c2nc(C)c(C(=O)NNC3CCCC3O)n2c1 (stereo not shown) [Example 70]
- minimal effective concentration: 0.3 µM

SMILES: Cc1cc(OCc2c(F)cccc2F)c2nc(C)c(C(=O)NNC3CCS(=O)(=O)C3)n2c1 (stereo not shown) [Example 71]
- minimal effective concentration: 1 µM

SMILES: Cc1cc(OCc2c(F)cccc2F)c2nc(C)c(C(=O)NNC3CS(=O)(=O)CC3C)n2c1 (stereo not shown) [Example 72]
- minimal effective concentration: 3 µM

SMILES: Cc1cc(OCc2c(F)cccc2F)c2nc(C)c(C(=O)NNC3CS(=O)(=O)CC3O)n2c1 (stereo not shown) [Example 73]
- minimal effective concentration: 3 µM
